Legend:
[1] = molecular target: T1, human CCR2 (Homo sapiens, UniProt P41597); assay: THP-1 binding (CCR2, 125I-human MCP-1 tracer); set-up: THP-1 human monocytic leukemic cell line, which expresses endogenous CCR2; endogenous in cells; host or cells: THP-1 human monocytic leukemia cells; conditions: metabolite examples; THP-1 cells, 125I-MCP-1
T1 sequence (P41597 1-360 isoform P41597-2): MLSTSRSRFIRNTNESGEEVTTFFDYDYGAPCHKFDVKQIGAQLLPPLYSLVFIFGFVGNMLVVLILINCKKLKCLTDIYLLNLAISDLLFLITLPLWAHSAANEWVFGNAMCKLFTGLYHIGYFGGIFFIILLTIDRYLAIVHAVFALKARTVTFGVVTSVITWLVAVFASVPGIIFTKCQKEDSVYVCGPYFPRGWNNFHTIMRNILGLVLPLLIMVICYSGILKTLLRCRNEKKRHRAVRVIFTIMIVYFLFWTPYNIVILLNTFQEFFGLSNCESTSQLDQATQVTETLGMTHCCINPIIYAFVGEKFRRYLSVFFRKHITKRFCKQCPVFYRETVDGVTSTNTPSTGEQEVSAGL
Method: The human CCR2 binding assay was also established with the THP-1 human monocytic leukemic cell line, which expresses endogenous CCR2, using 125I-human MCP-1 as the tracer ligand. Radioligand competition binding assays were used for assessment of binding affinity of test compounds to the CCR2 receptor. For radioligand competition studies, 100 μl containing 2.5×10^5 THP-1 cells/well (in assay buffer containing 50 mM HEPES, pH7.4, 5 mM MgCl2, 1 mM CaCl2 and 0.5% BSA) were added to 96-well assay plates containing test compound in 3-fold serial dilution, with final concentrations ranging from […]. Subsequently, 50 μl ^125I-MCP-1 radioligand at a final concentration of 0.2 nM in assay buffer were added to the reaction. After a 90 minute incubation period at room temperature, the binding reaction was terminated by harvesting on GF/B filter plates (PerkinElmer Cat. No. 6005177) followed by washing with ice-cold wash buffer (50 mM HEPES, pH 7.4, 0.1% BSA, 0.5 M NaCl) to remove unbound ligand. After washing, the plate was dried for 45 minutes at 60° C. followed by addition of 40 μl MicroScint 20 scintillation fluid, sealed and analyzed by the Packard TopCount reader. […] The competition data was plotted as a percentage inhibition of radioligand specific bound in the absence of test compound (percent of total signal). After correcting for non-specific binding, IC50 values were determined.

[2] = molecular target: T1, human CCR2; assay: Human peripheral blood mononuclear cell binding (CCR2 binding), 125I-human MCP-1 tracer; set-up: hPBMCs were isolated from human leukopak (Biological Specialty Inc.); endogenous in cells; host or cells: human peripheral blood mononuclear cells from leukopak (Biological Specialty Inc.); conditions: metabolite examples; hPBMCs, 125I-MCP-1; read-out: PBMC Binding IC50
Method: See also: Yoshimura et al., J. Immunol. 1990, 145, 292. The human CCR2 binding assay was established with human peripheral blood mononuclear cells (hPBMCs) using ^125I-human MCP-1 as the tracer ligand. hPBMCs were isolated from human leukopak (Biological Specialty Inc.) using a standard protocol with Ficoll-Hypaque (Mediatech Cellgro). Isolated hPBMCs were washed and diluted to 1×10^7/ml in binding buffer (RPMI-1640, 0.1% BSA, 20 mM Hepes, pH 7.4). ^125I-MCP-1 (NEN/Perk Elmer) was diluted to 0.45 nM in binding buffer. The compound was diluted in binding buffer at 3-fold the final concentrations used in the binding assay. The binding assay was performed using a 96-well filter plate (Millipore). Total ^125I-MCP-1 binding was assessed as follows: to each reaction of a total volume of 150 μl were added 5×10^5 cells, 0.15 nM […], and compound such that the final concentration ranged from 0 to 100 nM. The plate was incubated at room temperature for 30 minutes followed by three washes with RPMI-1640, 0.1% BSA, 0.4 M NaCl, 20 mM Hepes, pH 7.4 using a vacuum manifold filtration (Millipore). After washing, the plate was air-dried for 60 minutes at room temperature. This was followed by adding 25 μl of Microscint 20 into each well. The plate was sealed and counted on the Trilux for 1 minute. Non-specific binding was determined in the presence of 300 nM cold MCP-1 (PeproTech Inc.). Specific 1-MCP-1 was calculated as the difference between total and non-specific binding. All conditions were tested in duplicate.

IC50 [1]: 4.22 ± 1.22 nM | IC50 [2]: 3.46 ± 1.1 nM
Structure (SMILES): CC(=O)N[C@@H]1C[C@H](N)CC[C@@H]1N1CC[C@H](Nc2ncnc3ccc(C(F)(F)F)cc23)C1=O [Example 4, N-((1R,2S,5R)-5-amino-2-((3S)-2-oxo-3-((6-(trifluoromethyl)-4-quinazolinyl)amino)-1-pyrrolidinyl)cyclohexyl)acetamide]
